Columns and labels:
[1] = target: T1, cysteines in MDA-MB-231 and Ramos cells (Homo sapiens, UniProt P42765); experiment: Competitive isoTOP-ABPP in situ (fragment-treated cells); assay type: cell-based
T1 sequence (P42765 1-397): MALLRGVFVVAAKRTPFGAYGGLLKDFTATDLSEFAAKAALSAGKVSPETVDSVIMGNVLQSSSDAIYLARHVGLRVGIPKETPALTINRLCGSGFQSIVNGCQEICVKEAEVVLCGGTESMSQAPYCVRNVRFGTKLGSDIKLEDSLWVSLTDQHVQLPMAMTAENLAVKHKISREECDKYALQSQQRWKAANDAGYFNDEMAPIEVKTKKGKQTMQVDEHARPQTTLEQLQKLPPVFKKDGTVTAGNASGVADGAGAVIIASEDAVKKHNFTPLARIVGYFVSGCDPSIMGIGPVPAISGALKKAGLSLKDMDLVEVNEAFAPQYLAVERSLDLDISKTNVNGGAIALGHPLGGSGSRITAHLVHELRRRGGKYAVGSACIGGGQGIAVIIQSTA

[2] = target: T2, cysteines in MDA-MB-231 and Ramos cells (Homo sapiens, UniProt Q96HE7); experiment: as above; assay type: cell-based
T2 sequence (Q96HE7 24-468): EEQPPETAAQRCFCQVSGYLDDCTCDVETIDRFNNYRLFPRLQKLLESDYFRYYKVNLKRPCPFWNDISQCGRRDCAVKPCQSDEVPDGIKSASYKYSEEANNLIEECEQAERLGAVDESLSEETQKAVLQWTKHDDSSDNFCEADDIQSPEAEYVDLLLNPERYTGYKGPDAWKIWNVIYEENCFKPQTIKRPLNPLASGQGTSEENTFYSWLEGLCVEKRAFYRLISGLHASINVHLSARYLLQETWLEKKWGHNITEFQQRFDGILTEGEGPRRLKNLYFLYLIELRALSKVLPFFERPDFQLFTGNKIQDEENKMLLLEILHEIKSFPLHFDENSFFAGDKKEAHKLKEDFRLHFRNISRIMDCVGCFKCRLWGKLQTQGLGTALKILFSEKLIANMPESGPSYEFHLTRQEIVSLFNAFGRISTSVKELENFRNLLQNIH

[3] = target: EP300 C1738 (Q09472) (Homo sapiens, UniProt Q09472); experiment: Competitive isoTOP-ABPP, cell lysates; assay type: binding
[4] = target: T3, CASP2 C370 (P42575) (Homo sapiens, UniProt P42575); experiment: Competitive isoTOP-ABPP, cell lysates; assay type: binding; conditions: for isoTOP-ABPP ratio (reactivity profile), P42575_C370: 500 μm in-vitro ramos
T3 sequence (P42575 1-452): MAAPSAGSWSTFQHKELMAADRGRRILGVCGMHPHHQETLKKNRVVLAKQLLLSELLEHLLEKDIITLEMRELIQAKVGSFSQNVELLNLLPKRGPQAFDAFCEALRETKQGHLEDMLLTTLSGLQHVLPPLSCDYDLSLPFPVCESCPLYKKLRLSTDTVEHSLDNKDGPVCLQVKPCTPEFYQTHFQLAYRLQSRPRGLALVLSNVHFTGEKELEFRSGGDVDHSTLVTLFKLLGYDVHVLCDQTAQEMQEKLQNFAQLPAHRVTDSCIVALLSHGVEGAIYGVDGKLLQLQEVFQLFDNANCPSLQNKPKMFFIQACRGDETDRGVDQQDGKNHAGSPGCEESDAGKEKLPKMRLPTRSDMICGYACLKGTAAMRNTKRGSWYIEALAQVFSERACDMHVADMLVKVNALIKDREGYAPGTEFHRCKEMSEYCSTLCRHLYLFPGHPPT

[5] = target: O114933_C98 (Homo sapiens, UniProt O14933); experiment: Competitive isoTOP-ABPP, cell lysates; assay type: binding
[6] = target: O00541_C272 (Homo sapiens, UniProt O00541); experiment: Competitive isoTOP-ABPP, cell lysates; assay type: binding
Sequence of O00541_C272 (O00541 whole entry, looked up): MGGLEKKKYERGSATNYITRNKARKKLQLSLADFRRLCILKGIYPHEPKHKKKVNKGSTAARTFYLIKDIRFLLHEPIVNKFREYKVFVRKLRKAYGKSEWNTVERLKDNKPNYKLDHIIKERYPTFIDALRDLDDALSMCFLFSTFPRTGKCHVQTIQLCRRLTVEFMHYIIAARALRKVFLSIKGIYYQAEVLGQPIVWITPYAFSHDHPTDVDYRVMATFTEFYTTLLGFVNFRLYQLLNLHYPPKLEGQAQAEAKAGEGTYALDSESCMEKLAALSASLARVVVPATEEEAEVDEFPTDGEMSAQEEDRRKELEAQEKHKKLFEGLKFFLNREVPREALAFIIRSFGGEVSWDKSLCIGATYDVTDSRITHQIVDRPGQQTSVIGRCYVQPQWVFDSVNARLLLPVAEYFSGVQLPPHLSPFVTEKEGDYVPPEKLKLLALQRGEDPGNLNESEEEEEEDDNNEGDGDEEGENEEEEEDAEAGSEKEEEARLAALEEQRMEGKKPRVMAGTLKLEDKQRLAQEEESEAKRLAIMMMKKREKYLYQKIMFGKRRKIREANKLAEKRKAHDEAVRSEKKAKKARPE

Sequence of O114933_C98 (O14933 whole entry): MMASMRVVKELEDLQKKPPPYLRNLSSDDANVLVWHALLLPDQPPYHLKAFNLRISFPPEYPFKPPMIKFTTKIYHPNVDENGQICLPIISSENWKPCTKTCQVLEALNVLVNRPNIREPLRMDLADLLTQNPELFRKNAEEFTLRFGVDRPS
Sequence of EP300 C1738 (Q09472) (Q09472 whole entry): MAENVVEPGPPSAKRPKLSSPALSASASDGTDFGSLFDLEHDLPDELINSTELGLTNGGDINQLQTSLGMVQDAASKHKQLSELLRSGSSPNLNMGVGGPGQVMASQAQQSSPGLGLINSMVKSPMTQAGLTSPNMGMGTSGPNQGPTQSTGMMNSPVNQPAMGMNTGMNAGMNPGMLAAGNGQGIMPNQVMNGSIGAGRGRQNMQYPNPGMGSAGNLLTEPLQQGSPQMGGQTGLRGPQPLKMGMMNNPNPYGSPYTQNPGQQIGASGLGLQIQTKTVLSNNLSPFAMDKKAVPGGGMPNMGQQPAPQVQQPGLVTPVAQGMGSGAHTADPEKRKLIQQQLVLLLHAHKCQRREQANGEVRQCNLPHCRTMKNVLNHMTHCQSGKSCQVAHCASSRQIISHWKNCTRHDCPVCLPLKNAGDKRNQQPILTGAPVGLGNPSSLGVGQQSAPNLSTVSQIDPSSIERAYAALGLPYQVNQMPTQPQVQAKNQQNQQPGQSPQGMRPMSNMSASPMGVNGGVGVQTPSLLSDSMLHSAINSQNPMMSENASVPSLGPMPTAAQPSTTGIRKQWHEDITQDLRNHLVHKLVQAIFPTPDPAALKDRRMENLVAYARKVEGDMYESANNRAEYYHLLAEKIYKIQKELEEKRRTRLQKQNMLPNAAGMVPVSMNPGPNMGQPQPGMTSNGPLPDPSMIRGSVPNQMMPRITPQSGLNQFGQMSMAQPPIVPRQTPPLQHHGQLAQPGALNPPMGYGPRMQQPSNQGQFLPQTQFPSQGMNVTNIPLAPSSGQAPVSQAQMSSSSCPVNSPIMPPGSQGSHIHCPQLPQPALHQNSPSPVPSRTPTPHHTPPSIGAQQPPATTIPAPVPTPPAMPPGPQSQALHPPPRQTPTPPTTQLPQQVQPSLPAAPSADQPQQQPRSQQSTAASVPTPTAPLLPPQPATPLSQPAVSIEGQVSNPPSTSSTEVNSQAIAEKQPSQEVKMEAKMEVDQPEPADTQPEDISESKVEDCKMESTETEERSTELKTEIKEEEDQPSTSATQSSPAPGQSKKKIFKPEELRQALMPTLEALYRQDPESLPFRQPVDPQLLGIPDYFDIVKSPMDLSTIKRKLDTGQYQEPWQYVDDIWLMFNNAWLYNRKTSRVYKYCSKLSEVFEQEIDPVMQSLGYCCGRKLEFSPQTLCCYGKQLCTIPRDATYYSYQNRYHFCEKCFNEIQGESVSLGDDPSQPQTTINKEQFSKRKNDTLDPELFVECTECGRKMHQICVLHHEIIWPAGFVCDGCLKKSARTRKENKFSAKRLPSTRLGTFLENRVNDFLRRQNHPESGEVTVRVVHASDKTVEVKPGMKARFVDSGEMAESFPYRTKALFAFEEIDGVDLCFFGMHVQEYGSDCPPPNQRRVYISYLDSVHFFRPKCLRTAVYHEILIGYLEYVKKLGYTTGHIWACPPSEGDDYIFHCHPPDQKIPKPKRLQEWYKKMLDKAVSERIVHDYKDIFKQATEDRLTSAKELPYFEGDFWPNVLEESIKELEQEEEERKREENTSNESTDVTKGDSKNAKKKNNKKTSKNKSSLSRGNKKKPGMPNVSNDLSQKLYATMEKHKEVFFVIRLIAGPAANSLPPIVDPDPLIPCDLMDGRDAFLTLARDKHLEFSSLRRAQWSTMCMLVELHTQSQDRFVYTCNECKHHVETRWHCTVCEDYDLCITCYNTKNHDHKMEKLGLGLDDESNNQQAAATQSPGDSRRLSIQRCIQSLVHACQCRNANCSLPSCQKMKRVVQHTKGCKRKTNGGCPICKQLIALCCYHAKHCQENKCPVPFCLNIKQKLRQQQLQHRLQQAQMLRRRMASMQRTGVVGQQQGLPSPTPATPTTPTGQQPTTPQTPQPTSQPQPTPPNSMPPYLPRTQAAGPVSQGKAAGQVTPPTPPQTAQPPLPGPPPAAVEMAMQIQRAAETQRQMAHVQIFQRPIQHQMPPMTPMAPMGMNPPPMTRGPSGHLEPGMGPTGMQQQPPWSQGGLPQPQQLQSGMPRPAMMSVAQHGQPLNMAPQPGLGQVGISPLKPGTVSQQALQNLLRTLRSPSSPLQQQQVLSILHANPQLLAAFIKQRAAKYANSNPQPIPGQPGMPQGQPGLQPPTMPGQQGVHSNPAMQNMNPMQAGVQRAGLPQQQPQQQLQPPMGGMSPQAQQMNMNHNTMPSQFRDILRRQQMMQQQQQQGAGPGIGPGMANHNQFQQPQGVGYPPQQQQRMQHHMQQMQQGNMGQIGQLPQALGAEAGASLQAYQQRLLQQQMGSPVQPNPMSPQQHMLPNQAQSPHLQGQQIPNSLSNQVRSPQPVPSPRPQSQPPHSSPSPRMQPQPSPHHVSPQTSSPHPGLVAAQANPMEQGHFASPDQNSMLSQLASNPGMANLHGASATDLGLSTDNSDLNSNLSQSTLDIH

## COc1ccc2c(c1)CCCN2C(=O)CCl [compound 2]
[1]; 200 μM, insitu, 231
  isoTOP-ABPP reactivity P42765_C92 ACAA2: 20.0
[2]; 200 μM, insitu, 231
  isoTOP-ABPP reactivity Q96HE7_C241 ERO1L: 2.4
[3]; 500 μM, invitro, ramos
  R value (DMSO/fragment): 12.7

## O=C(CCl)Nc1cc(C(F)(F)F)cc(C(F)(F)F)c1 [compound 3]
[4]; 500 μM, invitro, ramos
  R value (DMSO/fragment): 7.4

## COc1ccc(C2CC(c3cccs3)=NN2C(=O)CCl)cc1 (stereo not drawn) [compound 4]
[1]; 100 μM in situ 231
  isoTOP-ABPP reactivity P42765_C92 ACAA2: 3.7
[2]; 100 μM in situ 231
  isoTOP-ABPP reactivity Q96HE7_C37 ERO1L: 5.4
  isoTOP-ABPP reactivity Q96HE7_C241 ERO1L: 3.0

## C=CC(=O)N(c1ccccc1)c1ccc(Br)cc1 [compound 5]
[3]; 500 μM, invitro, ramos
  isoTOP-ABPP ratio, Q09472_C1738: 20.0

## COc1cc2c(cc1OC)CN(C(=O)CCl)CC2 [compound 8]
[1]; 200 μM, insitu, 231
  isoTOP-ABPP reactivity P42765_C92 ACAA2: 20.0
[2]; 200 μM, insitu, 231
  isoTOP-ABPP reactivity Q96HE7_C241 ERO1L: 3.7

## O=C(CCl)N1CCC(Cc2ccccc2)CC1 [compound 9]
[1]; 200 μM, insitu, 231
  isoTOP-ABPP reactivity P42765_C92 ACAA2: 4.3
[2]; 200 μM, insitu, 231
  isoTOP-ABPP reactivity Q96HE7_C37 ERO1L: 20.0

## O=C(CCl)N1CCN(S(=O)(=O)c2ccccc2F)CC1 [compound 10]
[1]; 200 μM, insitu, 231
  isoTOP-ABPP ratio P42765_C92: 3.7
[1]; 200 μM, insitu, ramos
  isoTOP-ABPP ratio P42765_C92: 1.1
[2]; 200 μM, insitu, 231
  isoTOP-ABPP ratio Q96HE7_C241: 2.0
[4]; 500 μM, invitro, ramos
  isoTOP-ABPP ratio, P42575_C370: 1.2

## Cn1cc(S(=O)(=O)N2CCOCC2)cc1C(=O)NC(=O)CCl [compound 11]
[2]; 100 μM in situ 231
  isoTOP-ABPP ratio Q96HE7_C241: 1.8
[4]; 500 μM, invitro, ramos
  isoTOP-ABPP ratio, P42575_C370: 6.0

## O=C(CCl)NC(=O)NC12CC3CC(CC(C3)C1)C2 [compound 12]
[1]; 200 μM, insitu, 231
  isoTOP-ABPP ratio P42765_C92: 20.0
[2]; 200 μM, insitu, 231
  isoTOP-ABPP ratio Q96HE7_C241: 16.4

## O=C(CCl)NCCc1c[nH]c2ccccc12 [compound 13]
[1]; 200 μM, insitu, ramos
  isoTOP-ABPP ratio P42765_C92: 2.2
[2]; 200 μM, insitu, 231
  isoTOP-ABPP ratio Q96HE7_C241: 1.5
[2]; 200 μM, insitu, ramos
  isoTOP-ABPP ratio Q96HE7_C241: 1.3
  isoTOP-ABPP ratio, cysteine Q96HE7_C37: 1.4
[3]; 500 μM, invitro, ramos
  isoTOP-ABPP ratio, Q09472_C1738: 0.7

## C=CC(=O)N(Cc1cccnc1)c1ccc(Oc2ccccc2)c(C(F)(F)F)c1 [compound 15]
[5]; 500 μm in-vitro ramos
  isoTOP-ABPP ratio (reactivity profile), O114933_C98: 1.3

## O=C(CCl)N1CCC(C(O)(c2ccccc2)c2ccccc2)CC1 [compound 20]
[5]; 500 μm in-vitro ramos
  isoTOP-ABPP ratio (reactivity profile), O114933_C98: 3.9
[3]; 500 μm in-vitro ramos
  isoTOP-ABPP ratio (reactivity profile), Q09472_C1738: 3.2

## O=C(CCl)NC12CC3CC(CC(C3)C1)C2 [compound 21]
[1]; 200 μM, insitu, 231
  isoTOP-ABPP ratio P42765_C92: 1.3
[2]; 200 μM, insitu, 231
  isoTOP-ABPP ratio Q96HE7_C241: 1.6
[6]; 500 μm in-vitro ramos
  isoTOP-ABPP ratio (reactivity profile), O00541_C272: 5.5

## O=C(CCl)N1CCOCC1 [compound 22]
[5]; 500 μm in-vitro ramos
  isoTOP-ABPP ratio (reactivity profile), O114933_C98: 2.0
[6]; 500 μm in-vitro ramos_231
  isoTOP-ABPP ratio (reactivity profile), O00541_C272: 1.6

## N#C/C(=C\c1cc(C(F)(F)F)cc(C(F)(F)F)c1)C(N)=O [compound 23]
[5]; 500 μm in-vitro ramos
  isoTOP-ABPP ratio (reactivity profile), O114933_C98: 1.2
[5]; 500 μm in-vitro ramos_231
  isoTOP-ABPP ratio (reactivity profile), O114933_C98: 0.7
[6]; 500 μm in-vitro ramos
  isoTOP-ABPP ratio (reactivity profile), O00541_C272: 2.0
[4]
  isoTOP-ABPP ratio (reactivity profile), P42575_C370: 2.1

## CC(Br)C(=O)Nc1cc(C(F)(F)F)cc(C(F)(F)F)c1 (stereo not drawn) [compound 24]
[6]; 500 μm in-vitro ramos
  isoTOP-ABPP ratio (reactivity profile), O00541_C272: 2.6
[4]
  isoTOP-ABPP ratio (reactivity profile), P42575_C370: 2.2

Source: US10670605B2, “Cysteine reactive probes and uses thereof” (The Scripps Research Institute, priority 2015, dated 2020)
